Measured values published in patent US20230066946A1, “1,5-DIPHENYLPYRAZOLYL-3-OXYALKYL ACIDS AND 1-PHENYL-5-THIENYLPYRAZOLYL-3-OXYALKYL ACIDS AND THE USE THEREOF FOR CONTROL OF UNWANTED PLANT GROWTH” (Bayer Aktiengesellschaft, priority 2019, published 2023).

Tests used:
[1] = tested on: STEME; test: Pre-emergence herbicidal action against STEME; type: in vivo, Stellaria media; conditions: 1280 g/ha, scored visually after about 3 weeks vs untreated controls
Text: (§1) Seeds of mono- and dicotyledonous weed plants are placed in plastic pots in sandy loam soil (doubly sown with one species each of mono- or dicotyledonous weed plants per pot) and covered with soil. The compounds of the invention, formulated in the form of wettable powders (WP) or as emulsion concentrates (EC), are then applied onto the surface of the covering soil as aqueous suspension or emulsion with addition of 0.5% additive at a water application rate equivalent to 600 litres per hectare. After the treatment, the pots are placed in a greenhouse and kept under good growth conditions for the trial plants. After about 3 weeks, the effect of the preparations is scored visually in comparison with untreated controls as percentages. For example, 100% activity=the plants have died, 0% activity=like control plants. [table] Tables 4.1-4.15 below show the effects of selected compounds of the general formula (I) according to Tables 1 to 3 on various harmful plants at an application rate corresponding to 1280 or 320 g/ha, which have been obtained by the aforementioned experimental method.

[2] = tested on: SETVI; test: Pre-emergence herbicidal action against SETVI; type: in vivo, Setaria viridis; conditions: 1280 g/ha, scored visually after about 3 weeks vs untreated controls
Text: as §1

[3] = tested on: MATIN; test: Post-emergence herbicidal action against MATIN; type: in vivo, Matricaria inodora; conditions: 1280 g/ha, visual rating about 3 weeks after treatment
Protocol: (§2) [table] Seeds of mono- and dicotyledonous weed plants are placed in plastic pots in sandy loam soil (twin sowing with one species each of mono- or dicotyledonous weed plants per pot), covered with soil and cultivated in a greenhouse under controlled growth conditions. 2 to 3 weeks after sowing, the test plants are treated at the one-leaf stage. The compounds of the invention, formulated in the form of wettable powders (WP) or as emulsion concentrates (EC), are applied to the green parts of the plants as aqueous suspension or emulsion with addition of 0.5% additive at a water application rate equivalent to 600 litres per hectare. After the test plants have been kept in the greenhouse under optimum growth conditions for about 3 weeks, the activity of the preparations is rated visually in comparison to untreated controls. For example, 100% activity=the plants have died, 0% activity=like control plants. Tables 5.1-5.16 below show the effects of selected compounds of the general formula (I) according to Tables 1 to 3 on various harmful plants at an application rate corresponding to 1280 or 320 g/ha, which have been obtained by the aforementioned experimental method.

[4] = tested on: AMARE; test: Post-emergence herbicidal action against AMARE; type: in vivo, Amaranthus retroflexus; conditions: 1280 g/ha, visual rating about 3 weeks after treatment
Protocol: as §2

[5] = tested on: ECHCG; test: Pre-emergence herbicidal action against ECHCG; type: in vivo, Echinochloa crus-galli; conditions: scored visually after about 3 weeks vs untreated controls, 100% = plants have died, 0% = like control plants
Text: as §1

[6] = tested on: AMARE; test: Pre-emergence herbicidal action against AMARE; type: in vivo, Amaranthus retroflexus; conditions: 1280 g/ha, scored visually after about 3 weeks vs untreated controls
Text: as §1

[7] = tested on: STEME; test: Post-emergence herbicidal action against STEME; type: in vivo, Stellaria media; conditions: 1280 g/ha, visual rating about 3 weeks after treatment
Protocol: as §2

[8] = tested on: SETVI; test: Post-emergence herbicidal action against SETVI; type: in vivo, Setaria viridis; conditions: 1280 g/ha, post-emergence at one-leaf stage, rated visually after about 3 weeks vs untreated controls
Protocol: as §2

Structure (SMILES)	Pre-emergence action against STEME in % [1]	Pre-emergence action against SETVI in % [2]	Post-emergence action against MATIN in % [3]	Post-emergence action against AMARE in % [4]	Pre-emergence action at 1280 g/ha against ECHCG in % [5]	Pre-emergence action against AMARE in % [6]	Post-emergence action against STEME in % [7]	Post-emergence action against SETVI in % [8]
CCOC(=O)COc1nn(-c2ccc(F)cc2)c(-c2ccc(F)cc2)c1Br [I-076]	100%	100%	90%	100%	90%	100%		
CCOC(=O)COc1nn(-c2ccccc2)c(-c2ccc(F)cc2F)c1Br [I-085]		100%	90%	100%	100%	100%	100%	
CCOC(=O)COc1nn(-c2ccccc2OC)c(-c2ccc(F)cc2)c1Br [I-089]				100%				100%
O=C(COc1nn(-c2ccccc2)c(-c2ccc(F)cc2)c1Br)OCc1cccc(F)c1 [I-111]	100%	90%	90%	100%	100%		90%	
COC(=O)COc1nn(-c2cccc(F)c2)c(-c2ccccc2)c1Br [I-114]	100%	100%	90%	100%	90%	100%		
O=C(O)COc1nn(-c2ccc(F)cc2)c(-c2cccc(F)c2)c1Br [I-119]	100%	100%	90%	100%		100%	90%	
COC(=O)COc1nn(-c2cccc(F)c2)c(-c2ccccc2)c1[N+](=O)[O-] [I-122]					100%	100%		
CCOC(=O)COc1nn(-c2ccccc2F)c(-c2ccc(F)c(F)c2)c1Cl [I-131]		100%	90%		100%	100%	90%	
CCOC(=O)COc1nn(-c2ccccc2F)c(-c2ccc(F)c(F)c2)c1Br [I-133]	100%	100%	90%	90%	90%	100%	100%	
CCOC(=O)COc1nn(-c2c(F)cccc2F)c(-c2ccc(F)c(F)c2)c1Br [I-134]	100%	100%		90%	100%	100%	100%	
CC(C)(Oc1nn(-c2ccccc2)c(-c2ccc(F)cc2)c1Br)C(=O)O [I-140]	100%	100%			90%	90%	100%	
CCOC(=O)COc1nn(-c2c(F)cccc2F)c(-c2ccc(F)c(F)c2)c1Cl [I-142]	100%	100%	90%		100%	100%	100%	
